Reference: ChEMBL document CHEMBL1201862, “PubChem BioAssay data set” (2004)
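Step 1: Grow cells in 96-well plates. Step 2: Expose to compound for 48 hours at 5 concentrations. Step 3: Interpolate endpoints linearly; if unreached, use highest concentration. GI50 marks 50% less growth.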 Calls of active or inactive are those of the source. Cut-off read from the data, not from the text of the source: active = GI50 up to about 1.1 µM and inactive = higher.

Key:
Assay in all cases: NCI anticancer screen, dose series, 48 h
[1] = test system: NCI-H522
[2] = test system: NCI-H226
[3] = test system: UACC-62
[4] = test system: M14
[5] = test system: TK-10
[6] = test system: 786-0
[7] = test system: HCC 2998
[8] = test system: SF-295
[9] = test system: HT-29
[10] = test system: HCT-15
[11] = test system: NCI-H23
[12] = test system: A498
[13] = test system: MOLT-4
[14] = test system: K562
[15] = test system: NCI-H460
[16] = test system: SK-MEL-28
[17] = test system: HOP-92
[18] = test system: RXF 393
[19] = test system: LOX IMVI

Structure (SMILES) | GI50 [1] | GI50 [2] | GI50 [3] | GI50 [4] | GI50 [5] | GI50 [6] | GI50 [7] | GI50 [8] | GI50 [9] | GI50 [10] [µM] | GI50 [11] | GI50 [12] | GI50 [13] | GI50 [14] | GI50 [15] | GI50 [16] | GI50 [17] | GI50 [18] | GI50 [19]
CSc1ccc2c(cc1=O)[C@@H](NC(=O)c1cc(O)c(O)c(O)c1)CCc1cc(O)c(O)c(O)c1-2 | 21.4 µM (inactive) | 16 µM (inactive) | 19.2 µM (inactive) | 19.6 µM (inactive) | 41.6 µM (inactive) | 34.6 µM (inactive) | > 100 µM (inactive) | 23.7 µM (inactive) | 24 µM (inactive) | 20.2 | 20 µM (inactive) | > 100 µM (inactive) | 18.5 µM (inactive) | 3.8 µM (inactive) | 20 µM (inactive) | 32.3 µM (inactive) |  |  | 
O=C1OCCC1C(O)C1c2ccccc2-c2ccccc21 (stereo not drawn) | > 100 µM (inactive) | > 100 µM (inactive) | > 100 µM (inactive) | > 100 µM (inactive) | > 100 µM (inactive) | > 100 µM (inactive) |  | > 100 µM (inactive) | > 100 µM (inactive) |  | > 100 µM (inactive) | > 100 µM (inactive) | > 100 µM (inactive) | > 100 µM (inactive) | > 100 µM (inactive) | > 100 µM (inactive) | > 100 µM (inactive) |  | 
CCCCCCc1cc2c(C)c(C)c(=O)oc2cc1OCCCOc1cc2oc(=O)c(C)c(C)c2cc1CCCCCC | > 100 µM (inactive) |  | > 100 µM (inactive) | > 100 µM (inactive) | > 100 µM (inactive) | > 100 µM (inactive) |  | > 100 µM (inactive) | > 100 µM (inactive) | > 100 | > 100 µM (inactive) | > 100 µM (inactive) | > 100 µM (inactive) | > 100 µM (inactive) | > 100 µM (inactive) | > 100 µM (inactive) | > 100 µM (inactive) | 43.4 µM (inactive) | > 100 µM (inactive)
NC(=O)COc1ccc(Br)cc1Br | > 100 µM (inactive) | > 100 µM (inactive) |  | > 100 µM (inactive) |  | > 100 µM (inactive) |  | > 100 µM (inactive) | > 100 µM (inactive) | > 100 | > 100 µM (inactive) | > 100 µM (inactive) | > 100 µM (inactive) | > 100 µM (inactive) | > 100 µM (inactive) | > 100 µM (inactive) | > 100 µM (inactive) |  | 
Cc1ccc(S(=O)(=O)N/N=C(\c2nc3ccc([N+](=O)[O-])cc3nc2O)C(O)c2ccccc2Cl)cc1 (stereo not drawn) | 6.93 µM (inactive) | > 100 µM (inactive) | 86.9 µM (inactive) | 82.8 µM (inactive) | > 100 µM (inactive) | > 100 µM (inactive) | > 100 µM (inactive) | > 100 µM (inactive) | > 100 µM (inactive) | 78 | > 100 µM (inactive) | > 100 µM (inactive) | > 100 µM (inactive) | 28.2 µM (inactive) | > 100 µM (inactive) | > 100 µM (inactive) | > 100 µM (inactive) |  | > 100 µM (inactive)
CC#CC1/C(=C\C(=O)OC)CCCC1O (stereo not drawn) | > 100 µM (inactive) | > 100 µM (inactive) | > 100 µM (inactive) | > 100 µM (inactive) | > 100 µM (inactive) | > 100 µM (inactive) | > 100 µM (inactive) | > 100 µM (inactive) | > 100 µM (inactive) | > 100 | > 100 µM (inactive) | > 100 µM (inactive) | > 100 µM (inactive) | > 100 µM (inactive) | > 100 µM (inactive) | > 100 µM (inactive) |  | > 100 µM (inactive) | 
COC(=O)C(C(=O)C(=O)Nc1ccccc1C)c1nc2ccc([N+](=O)[O-])cc2nc1O (stereo not drawn) | 47.3 µM (inactive) | > 100 µM (inactive) | > 100 µM (inactive) | > 100 µM (inactive) | > 100 µM (inactive) | > 100 µM (inactive) | > 100 µM (inactive) | > 100 µM (inactive) | > 100 µM (inactive) | > 100 | > 100 µM (inactive) | > 100 µM (inactive) | > 100 µM (inactive) | > 100 µM (inactive) | > 100 µM (inactive) | > 100 µM (inactive) |  | > 100 µM (inactive) | > 100 µM (inactive)
O=S(=O)(N/N=C\c1c2ccccc2[n+]([O-])c2ccccc12)c1ccc(Cl)cc1 | 93.8 µM (inactive) | 30.3 µM (inactive) | > 100 µM (inactive) | > 100 µM (inactive) | > 100 µM (inactive) | 43.5 µM (inactive) | > 100 µM (inactive) | 66.4 µM (inactive) | > 100 µM (inactive) | > 100 | 85.5 µM (inactive) | > 100 µM (inactive) | 58.6 µM (inactive) | 48.2 µM (inactive) | > 100 µM (inactive) | > 100 µM (inactive) | > 100 µM (inactive) |  | > 100 µM (inactive)
